# Patent publication US12577197B2, “Methods of preparing N6-((2-azidoethoxy)carbonyl)lysine” (SANOFI, priority 2019, dated 2026)
# Values joined by “and” are separate entries in the source; they are usually repeats but may differ in a detail not shown here. Identical values can stand only once.
# Tests used:
# [1] = Time to maximum rate (TMR) estimated from phi factor corrected ARC data; assay type: physicochemical
# Source text: Test data obtained from the ARC can be used to estimate the self-accelerating decomposition temperature of a sample (J. K. Wilberforce, “The Use of the Accelerating Rate calorimeter to determine the SADT of organic peroxides,” Columbia Scientific Industries, Milton Keynes; Harold G. Fisher and David D. Goetz, “Determination of self-accelerating decomposition temperature using the accelerating rate calorimeter,” J. Loss Prev. Process Ind., 1991, Vol 4., 305-316). Time to maximum rate (TMR) is defined as the amount of time that is needed for a reaction to reach its maximum self-heating rate or pressure rate in a thermal runaway reaction. TMR data was extracted from the phi factor corrected test data and a plot of Ln(TMR) against −1000/T was generated (FIG. 4).
# The following equation was taken from FIG. 4 to allow the determination of the time to maximum rate as a function of temperature: Ln(TMR(s))=−16.389*(−1000/(T(K)))−29.262 The TMR increases as the batch temperature decreases. The measured exotherm was used to estimate the TMR. The results are provided only as a reference, as it is based on a single ARC test and not a detailed kinetic study (FIG. 5).
# [2] = Accelerating rate calorimetry (ARC) study, heat-wait-search mode; conditions: for Onset temperature of exotherm / Onset of exothermic activity: HWS mode, adiabatic, air, titanium bomb; for ΔT adiabatic / Adiabatic Temperature Rise (phi corrected): phi factor 1.6684
# [3] = Effect of pH on solubility in water (HPLC of supernatant); assay type: physicochemical
# Method: To further purify N^6-((2-azidoethoxy)carbonyl)-L-lysine (Formula (VIa)), a suspension of N^6-((2-azidoethoxy)carbonyl)-L-lysine (Formula (VIa)) in water was prepared, followed by addition of HC1 to form a solution. Neutralization of the resulting solution with ammonium hydroxide reprecipitates the product and further purges the material of residual impurities, which remain in solution. In order to improve product yield, the effect of pH on the solubility of N^6-((2-azidoethoxy)carbonyl)-L-lysine (Formula (VIa)) was examined. Briefly, this study involved suspending N^6-((2-azidoethoxy)carbonyl)-L-lysine (Formula (VIa)) in water, progressively basifying the mixture, and determining the amount of N^6-((2-azidoethoxy)carbonyl)-L-lysine (Formula (VIa)) in the supernatant as a function of pH.
# N^6-((2-azidoethoxy)carbonyl)-L-lysine (Formula (VIa)) (0.95 g) was charged into a 20 mL glass scintillation vial along with water (7.2 g). The resulting suspension was thoroughly mixed on a vortex apparatus for 60 seconds, then allowed to settle for 5 minutes. The pH of the supernatant was measured at 4.44 and an aliquot was taken and diluted with HPLC eluent (H2O:CH3CN 1:1, 0.1% TFA). The sample was analyzed by HPLC (column: ACE Excel 3 Super C18, 4.6×150 mm, 3.0 μm, flow rate: 1.2 mL/min, phase A: 0.1% TFA in water, phase B: 0.1% TFA in acetonitrile) and the content of N^6-((2-azidoethoxy)carbonyl)-L-lysine (Formula (VIa)) was calculated based on HPLC analysis of Formula (VIa) standards.
# The contents of the scintillation vial were basified by addition of a drop of 28-30% ammonium hydroxide, and the suspension was vortexed, allowed to decant, and the supernatant was again sampled and analyzed by HPLC.
structure (smiles),measurement,setting,value
CC(C)(C)OC(=O)N[C@@H](CCCCNC(=O)OCCN=[N+]=[N-])C(=O)OC(C)(C)C [Formula (IIIa)],Time to maximum rate (TMR),[1]; 122.0 ° C.,48.3 h
same,Time to maximum rate (TMR),[1]; 129.0 ° C.,23.5 h
same,Time to maximum rate (TMR),[1]; 140.0 ° C.,7.9 h
same,Time to maximum rate (TMR),[1]; 160.0 ° C. (onset temperature of 2nd exotherm),1.3 h
same,Maximum pressure of test,[2],157.1 Bar gauge
same,Maximum pressure rate of test,[2],2.756 Bar min^−1
same,Maximum self-heating rate of test,[2],2.10 K min^−1
same,Temperature at maximum pressure rate,[2],208.5 °C
same,Temperature at maximum self-heat rate,[2],211.5 °C
same,Final temperature of exotherm / End of exothermic activity,[2]; 1st exotherm,100.79 °C
same,ΔT,[2]; 1st exotherm,0.65 °C
same,Onset temperature of exotherm / Onset of exothermic activity,[2]; 1st exotherm,100.14 °C
same,ΔT adiabatic / Adiabatic Temperature Rise (phi corrected),[2]; 1st exotherm,1.08 °C
same,ΔH reaction,"[2]; 1st exotherm, sample heat capacity estimated 2.10",−2.27 Joule/gram
same,Onset temperature of exotherm / Onset of exothermic activity,[2]; 2nd (major) exotherm,160.5 °C and 160.48 °C
same,Final temperature of exotherm / End of exothermic activity,[2]; 2nd exotherm,227.19 °C
same,ΔT,[2]; 2nd exotherm,66.71 °C
same,ΔT adiabatic / Adiabatic Temperature Rise (phi corrected),[2]; 2nd exotherm,111.29 °C
same,ΔH reaction,"[2]; 2nd exotherm, sample heat capacity estimated 2.10",−233.71 Joule/gram
same,Heat of reaction (exothermic),[2]; Exotherm 1,-2.27 J/g
same,Heat of reaction (exothermic),[2]; Exotherm 2,-233.71 J/g
same,ΔH reaction,[2]; Value column (both exotherms together),−235.99 Joule/gram
same,non-condensable gas remained in the bomb after completion of the test,[2]; after cooling to near ambient temperature at 30.7° C.,35.5 Bar gauge
same,Total heat released during the ARC test (all exotherms),[2]; all exotherms,-235.98 J/g
same,maximum pressure rate,[2]; at 208.5° C.,2.756 bar/min
same,maximum self-heat rate recorded,[2]; at 211.5° C.,2.098 K/min
same,thermal hazard in preparing the compound,[2]; conclusion from ARC and TMR data,no significant thermal hazard
same,Maximum temperature of test,[2]; test stopped by pressure trip,379.2 °C
same,total heat of the two exotherms,[2]; two exotherms,236.0 J/g
"[N-]=[N+]=NCCOC(=O)NCCCC[C@H](N)C(=O)O [Formula (VIa), N^6-((2-azidoethoxy)carbonyl)-L-lysine]",Amount of Formula (VIa) in supernatant,"[3]; Supernatant 1, pH 4.44, 0.95 g suspended in 7.2 g water",36 mg
same,Amount of Formula (VIa) in supernatant,"[3]; Supernatant 2, pH 8.13, basified with ammonium hydroxide",37 mg
same,Amount of Formula (VIa) in supernatant,"[3]; Supernatant 3, pH 8.58",38 mg
same,Amount of Formula (VIa) in supernatant,"[3]; Supernatant 4, pH 8.73",40 mg
same,Amount of Formula (VIa) in supernatant,"[3]; Supernatant 5, pH 8.86",42 mg
same,Amount of Formula (VIa) in supernatant,"[3]; Supernatant 6, pH 9.00",44 mg
same,Amount of Formula (VIa) in supernatant,"[3]; Supernatant 7, pH 9.26",44 mg
same,amount of product in supernatant of a saturated aqueous solution,[3]; pH range from 4 to 8,roughly the same amount of product in its supernatant
